Laboratory results: ChEMBL document CHEMBL3621050, “Activity and anion inhibition studies of the α-carbonic anhydrase from Thiomicrospira crunogena XCL-2 Gammaproteobacterium” (Bioorg Med Chem Lett, 2015)

Key:
[1] = target: T1, Carbonic anhydrase, alpha family (Thiomicrospira crunogena, UniProt Q31FD6); experiment: Inhibition of Thiomicrospira crunogena XCL-2 alpha-carbonic anhydrase expressed in Escherichia coli BL21 (DE3) cells by [18O]-exchange mass spectroscopy
T1 sequence (Q31FD6 whole entry): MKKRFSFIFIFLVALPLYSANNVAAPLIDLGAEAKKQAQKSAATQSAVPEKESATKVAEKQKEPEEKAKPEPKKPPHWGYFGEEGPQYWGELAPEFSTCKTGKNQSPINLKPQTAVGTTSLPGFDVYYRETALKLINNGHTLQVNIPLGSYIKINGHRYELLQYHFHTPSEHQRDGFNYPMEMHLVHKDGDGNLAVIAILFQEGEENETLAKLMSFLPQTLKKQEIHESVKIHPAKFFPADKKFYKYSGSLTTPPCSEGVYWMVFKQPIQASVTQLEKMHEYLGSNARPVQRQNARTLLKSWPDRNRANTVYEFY

[2] = Inhibition of Sulfurihydrogenibium yellowstonense YO3AOP1 alpha-carbonic anhydrase by [18O]-exchange mass spectroscopy
[3] = Inhibition of Sulfurihydrogenibium azorense alpha-carbonic anhydrase by [18O]-exchange mass spectroscopy
[4] = Inhibition of Vibrio cholerae alpha-carbonic anhydrase by [18O]-exchange mass spectroscopy

SMILES	Ki [1] [mM]	Ki [2] [mM]	Ki [3] [µM]	Ki [4] [mM]
I [IODIDE]	53	0.86	870	9.73
S [HYDROGEN SULFIDE]	0.0011	0.58	380	0.074
Br [BROMIDE]	242	49	940	28
Cl [HYDROCHLORIC ACID]	361	8.3	850	0.93
